Data: the SangsterLogP compilation

Compound	logP
O=C1CCCCCN1	-0.19
CNC(=O)Oc1cccc(C(C)=O)c1	0.9
CC(C)(S)[C@@H](N)C(=O)O	-1.78
CCOC(=O)c1ccc(O)cc1	2.47
CNC(=O)Oc1ccc(C)c(C)c1	2.09
CNC(=O)Oc1ccc(C(C)C)c(C)c1	3.11
Clc1ccccc1Cl	3.43
CCOc1ccc(OC(=O)NC)cc1	1.63
CCCCOC(=O)c1ccc(O)cc1	3.57
OCC(Cl)(Cl)Cl	1.42
CN/C(=C\[N+](=O)[O-])NCCSCc1ccc(CN(C)C)o1	0.27
NCCc1c[nH]c2ccccc12	1.55
C=CCNCC=C	1.11
Nc1cccc(S(N)(=O)=O)c1	-0.38
Clc1ccc(Cl)cc1	3.44
O=C(NC(O)Cc1ccc([N+](=O)[O-])cc1)C(F)(F)F (centres undefined)	1.46
CCCOC(=O)c1ccc(S(N)(=O)=O)cc1	1.75
CCCCCN	1.49
COc1ccc2c(c1)c(CC(=O)O)c(C)n2C(=O)c1ccc(Cl)cc1	4.27
CNC(=O)Oc1cccc(I)c1	2.52
CCOC(C)=O	0.73
Brc1ccncc1	1.54
CC(N)C(O)c1cccc(O)c1 (centres undefined)	-0.27
O=C(O)c1cccc(Br)c1	2.87
OC[C@H]1O[C@@H](n2cnc3c(O)ncnc32)[C@H](O)[C@@H]1O	-2.1
COC(=O)C(C#N)=NNc1cc(Cl)c(Cl)c(Cl)c1	5.22

Compound	logP
NC(=O)CCCCc1ccccn1	0.38
COC1C(Cl)C(Cl)C(Cl)C(Cl)C1OC (centres undefined)	2.82
CC(=O)Nc1ccc(Cl)cc1	2.09
CCc1cccc(OCC(=O)O)c1	2.25
CCCCCCC(C)=O	2.37
CSc1nnc(C(C)C)c(=O)n1N	1.01
C=CCBr	1.79
O=C(O)Cc1ccc(O)cc1	0.75
NC(=O)Cc1ccccn1	-0.65
NNc1ccccc1	1.25
NC(=O)Cc1cccnc1	-0.71
COc1ccccc1NC(C)=O	0.67
c1ccc2[nH]nnc2c1	1.44
NCc1cccnc1	-0.32
N=c1[nH]c(=O)c2ncn([C@@H]3C=C[C@@H](CO)O3)c2[nH]1	-1.21
O=C1CN=C(c2ccccc2)c2cc([N+](=O)[O-])ccc2N1	2.25
Nc1ccc2cc3ccc(N)cc3nc2c1	1.83
Cc1ccc(OCC(=O)O)cc1	1.86
CC(=O)Oc1ccccc1C(=O)O	1.19
Nc1ccc(S(=O)(=O)Nc2ccnn2-c2ccccc2)cc1	1.52
N#CCc1ccccc1	1.56
O=C(O)c1ccc(O)cc1	1.58
Cc1cccc2c1c([N+](=O)[O-])cc[n+]2[O-]	1.36
CCCN(CCC)N=O	1.36
COC(=O)C(C#N)=NNc1ccc(Cl)cc1C	4.3
CC(C)CO	0.76

Compound	logP
NC(=O)CCCNC(=C1C=C(F)C=CC1=O)c1ccc(Cl)cc1	3.06
CC(C)N(N=O)C(C)C	1.38
C(=C\c1ccccc1)/c1ccccc1	4.81
Oc1ccc(O)cc1	0.59
O=[N+]([O-])c1cncn1CCN1CCOCC1	0.07
O=C(O)c1cccnc1	0.36
COc1cccc([N+](=O)[O-])c1	2.16
Nc1ccccc1C(=O)O	1.21
C[C@@H]1C[C@H]2[C@@H]3CCC4=CC(=O)C=C[C@]4(C)[C@@]3(F)[C@@H](O)C[C@]2(C)[C@@]1(O)C(=O)CO	1.83
Oc1cccc(F)c1	1.93
CC(=O)c1cccc(OCC(=O)O)c1	0.98
CN1C(=O)C(=O)c2ccccc21	0.58
N#Cc1ccc(/C=C/NC=O)cc1	1.62
CCOc1ccccc1O	1.68
NS(=O)(=O)c1ccc(O)cc1	0.06
c1ccc2c(c1)ccc1ccccc12	4.46
Nc1cccnc1	0.11
O=C(O)CCCc1ccccc1	2.42
Nc1cccc([N+](=O)[O-])c1	1.37
Cn1nnc2ccccc21	1.13
O=[N+]([O-])c1cccc2ccccc12	3.19
O=C(O)c1ccccc1Oc1ccccc1	3.11
Cn1cnc2c1c(=O)[nH]c(=O)n2C	-0.78
CCOc1ccc([N+](=O)[O-])cc1	2.53
CCc1ccccc1Cl	2.95
CC(C)N	0.26

Compound	logP
S=C=Nc1ccccc1	3.28
CC(C)[N+](=O)[O-]	0.93
O=C(O)c1ncccc1O	-1.27
CO	-0.77
C=CCC1(CC)C(=O)NC(=O)NC1=O	0.95
N[C@@H](Cc1ccccc1)C(=O)O	-1.38
CCCN(CCC)S(=O)(=O)c1ccc(C(=O)O)cc1	3.21
Brc1nc(Br)c(Br)[nH]1	1.96
Nc1ccc(C(=O)O)cc1Cl	1.52
O=C(O)c1ccccc1Cl	2.05
O=C(O)c1ccccc1Nc1cccc(C(F)(F)F)c1	5.25
COc1ccccc1	2.11
CCCCCCCCCC	5.01
O=C(O)Cc1ccc(I)cc1	2.64
Cc1cc2ccccc2n1C	2.82
CC(=O)Nc1ccc(C(=O)O)cc1	1.31
Cc1ccc(N=C=S)cc1	3.92
FC(F)(Cl)C(F)(F)Cl	2.82
O=C(O)c1ccc(Oc2ccccc2)cc1	3.91
CN1CCC(=C2c3ccccc3C=Cc3ccccc32)CC1	4.69
O=[N+]([O-])c1ccc(Br)cc1	2.55
O=[N+]([O-])c1cccc2cccnc12	1.4
CCC=Cc1ccccc1[N+](=O)[O-]	2.86
CCCCCO	1.51
S=C1NCCN1	-0.66
C[C@H](CS)C(=O)N1CCC[C@H]1C(=O)O	0.34

Compound	logP
CCC(=O)O	0.33
NC(=O)/C=C/c1ccccc1	1.43
O=[N+]([O-])c1ccc(O)c([N+](=O)[O-])c1	1.67
CC(N)C(O)c1ccccc1 (centres undefined)	0.67
CC(C)C[C@H](N)C(=O)O	-1.52
CC(=O)c1ccccc1O	1.92
OCC=Cc1ccccc1	1.95
Cc1ccccc1OCC(=O)O	1.98
O=[N+]([O-])c1ccc2c(c1)c([N+](=O)[O-])cc[n+]2[O-]	0.9
CCOC(=O)C(C#N)=NNc1cc(Cl)cc(Cl)c1	3.82
Nc1ccc(C(=O)NCC(=O)O)cc1	-0.89
CNC(=O)Oc1ccc2c(c1)[C@]1(C)CCN(C)[C@@H]1N2C	1.58
Cc1ccccc1S(N)(=O)=O	0.84
O=[N+]([O-])c1ccc2c(ccc[n+]2[O-])c1	0.39
ClCCl	1.25
Nc1ccc2ncccc2c1	1.28
CCCCNC(=O)NS(=O)(=O)c1ccc(N)cc1	1.01
CN(C)C(=O)Nc1cccc(Cl)c1	2
C=CBr	1.57
O=C(O)CCc1ccccc1	1.84
CCCCC(CC)CN (centres undefined)	2.82
Nc1ncnc2c1ncn2[C@@H]1O[C@H](CO)C[C@H]1O	-0.61
N#Cc1ccc([N+](=O)[O-])cc1	1.19
OCc1ccc(Cl)cc1	1.96
NCCCCc1ccccc1	2.4
O=CO	-0.54

Compound	logP
NS(=O)(=O)c1cccc([N+](=O)[O-])c1	0.55
Fc1c(F)c(F)c(F)c(F)c1F	2.55
CC(C)[C@H](N)C(=O)O	-2.26
N#Cc1ccccn1	0.45
Nc1ccn(C2C=CC(CO)O2)c(=O)n1 (centres undefined)	-1.55
Cc1ccc(C)cc1	3.15
O=C(/C=C/c1ccccc1)c1ccccc1	3.08
NC(=O)c1ccc(Br)cc1	1.76
Oc1ccc(I)cc1	2.91
Cc1ccc(Cc2cnc(NCCSCc3ccc(C(C)(C)N)o3)[nH]c2=O)cn1	2.06
COc1cccc(O)c1	1.34
CC(=O)Nc1ccccn1	0.61
CCCCCC(=O)O	1.92
CC(=O)c1ccc(O)cc1	1.35
CCc1ccccc1OCC(=O)O	2.53
CCCCOc1cc(C(=O)NCCN(CC)CC)c2ccccc2n1	4.4
O=C(O)c1cccc(Cl)c1	2.68
O=C1NC(=O)C(c2ccccc2)(c2ccccc2)C(=O)N1	1.96
Cc1ccccc1N(C)C	2.85
NS(=O)(=O)c1ccc(Br)cc1	1.36
CCBr	1.61
CC1=CC(=O)c2ccccc2C1=O	2.2
C=CC	1.77
c1ccc2[nH]cnc2c1	1.32
COc1ccc2c3c1O[C@H]1[C@@H](O)C=C[C@H]4[C@@H](C2)N(C)CC[C@@]341	1.19
COc1ccccc1OCC(=O)O	0.98

Compound	logP
Nc1nc2c(ncn2[C@H]2C[C@H](O)[C@@H](CO)O2)c(=O)[nH]1	-1.3
Oc1ccccc1O	0.88
Cc1ccnc2c(O)cccc12	2.41
CCI	2
Cc1cc2ccccc2[nH]1	2.53
CCCC(C)C1(CC)C(=O)NC(=S)NC1=O (centres undefined)	2.85
Nc1cc[nH]c(=O)n1	-1.73
CCOC(=O)c1cccnc1	1.32
CN1C(=O)NC(=O)C(C)(C2=CCCCC2)C1=O (centres undefined)	1.98
OCCN1CCN(CC/C=C2\c3ccccc3Sc3ccc(Cl)cc32)CC1	4.18
C=CCOc1ccccc1OCC(O)CNC(C)C (centres undefined)	2.1
O=[N+]([O-])/C=C/c1cc([N+](=O)[O-])ccc1Cl	2.23
O=C(O)c1ccc(I)cc1	3.02
CCCC(CO)n1cnc2c(N)ncnc21 (centres undefined)	0.66
Cl[C@H]1[C@H](Cl)[C@@H](Cl)[C@@H](Cl)[C@H](Cl)[C@H]1Cl	3.72
CCOC(=O)C=Cc1ccccc1	2.99
O=[N+]([O-])c1ccccc1O	1.79
CN(C)CCN1C(=O)c2ccccc2N(C)c2ccccc21	2.5
CCCC(C)C1(CC)C(=O)NC(=O)NC1=O (centres undefined)	2.1
Nc1ccccn1	0.48
CNC(=O)Oc1cc(C)ccc1C(C)C	3.11
CC(=O)OCC1=C(C(=O)O)N2C(=O)[C@@H](NC(=O)Cc3cccs3)[C@H]2SC1	0
Cc1ccc(S(N)(=O)=O)cc1	0.82
